Reference: patent US20240368096A1 (Enanta Pharmaceuticals, Inc., priority 2022, published 2024)
pEC50: −log10 of the molar value.

tested on: HBV; assay: HBV infection in HepG2-NTCP cells (HBeAg AlphaLISA in supernatants); format: cell-based; conditions: Hepatitis B virus, 192 h; HBV infection of HepG2-NTCP cells; HBeAg in supernatants at day 8 post infection; read-out: Cellular EC50
In short: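 HepG2-NTCP A3 cells were pre-incubated 2 h with 3-fold serially diluted compounds, then infected with HBV at 2000 GE/cell with 4% PEG (0.5% DMSO final). After washing on day 1, cells stayed in 2.5% DMSO medium; supernatant HBeAg measured by AlphaLISA on day 8, EC50 versus DMSO controls.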

pEC50, > 7.00:
CC(C)C[C@@H]1CN(c2ccccc2)c2cc(Oc3ccccc3F)c(-c3ccc(F)c(C(=O)O)c3)cc2S(=O)(=O)N1C [Example 429]
CN1[C@H](C2CCCCC2)CN(c2ccccc2)c2cc(O[C@@H]3CCN(C(=O)OC(C)(C)C)C3)c(-c3ccc(F)c(C(=O)O)c3)cc2S1(=O)=O [Example 397]
CC(C)C[C@@H]1CN(c2ccccc2)c2cc(-c3ccccc3F)c(-c3ccc(F)c(C(=O)O)c3)cc2S(=O)(=O)N1C [Example 576]
CC(C)CC1CN(c2ccccc2)c2cc(Cl)c(-c3ccc(F)c(C(=O)O)c3)cc2S(=O)(=O)N1C (stereo not drawn) [Example 34]
CC(C)COC(=O)Nc1c(F)cc(-c2cc3c(cc2Cl)N(c2ccccc2)C[C@@H](C2CCCCC2)N(C)S3(=O)=O)cc1C(=O)O [Example 277]
CN1[C@H](C2CCC2)CN(c2ccccc2)c2cc(Cl)c(-c3cccc(C(=O)C(=O)O)c3)cc2S1(=O)=O [Example 206]
CN1[C@H](C2CCCCC2)CN(c2ccccc2)c2cc(Cl)c(-c3cc(NC(=O)OCC(C)(C)C#N)c(C(=O)O)s3)cc2S1(=O)=O [Example 256]
CN1[C@H](C2CCCCC2)CN(c2ccccc2)c2cc(OCc3cscn3)c(-c3ccc(F)c(C(=O)O)c3)cc2S1(=O)=O [Example 341]
CN1[C@H](C2CCCCC2)CN(c2ccccc2)c2cc(OC3CN(C(=O)OC(C)(C)C)C3)c(-c3ccc(F)c(C(=O)O)c3)cc2S1(=O)=O [Example 398]
CCCCC[C@H](C)Oc1cc2c(cc1-c1ccc(F)c(C(=O)O)c1)S(=O)(=O)N(C)[C@H](C1CCCCC1)CN2c1ccccc1 [Example 356]
CCCCOc1cc2c(cc1-c1ccc(F)c(C(=O)O)c1)S(=O)(=O)N(C)[C@H](C1CCCCC1)CN2c1ccccc1 [Example 350]
CC(C)Oc1cccc(COc2cc3c(cc2-c2cc(F)c(C(=O)O)s2)S(=O)(=O)N(C)[C@H](C2CCCCC2)CN3c2ccccc2)c1 [Example 506]
CC(C)CS(=O)(=O)Nc1ccc(-c2cc3c(cc2Cl)N(c2ccccc2)C[C@@H](C2CCCCC2)N(C)S3(=O)=O)cc1C(=O)O [Example 267, (R)-5-(7-chloro-3-cyclohexyl-2-methyl-1,1-dioxido-5-phenyl-2,3,4,5-tetrahydrobenzo[f][1,2,5]thiadiazepin-8-yl)-2-((2-methylpropyl)sulfonamido)benzoic acid]
CC(=O)Nc1ccc(-c2cc3c(cc2Cl)N(c2ccccc2)C[C@@H](C2CCCCC2)N(C)S3(=O)=O)cc1C(=O)O [Example 229]

pEC50, < 6.00:
CC(C)C[C@@H]1CN(c2ccccc2)c2cc(OC3CCN(C)CC3)c(-c3ccc(F)c(C(=O)O)c3)cc2S(=O)(=O)N1C [Example 448]
O=C(O)c1cccc(-c2cc3c(cc2F)N(c2ccccc2)CC2CC4(CC4)CN2S3(=O)=O)c1 (stereo not drawn) [Example 5]
CC(C)C[C@@H]1CN(c2ccccc2)c2cc(Cl)c(-c3ccc(N4CCCCC4)c(C(=O)O)c3)cc2S(=O)(=O)N1C [Example 219, (R)-5-(7-chloro-3-isobutyl-2-methyl-1,1-dioxido-5-phenyl-2,3,4,5-tetrahydrobenzo[f][1,2,5]thiadiazepin-8-yl)-2-(piperidin-1-yl)benzoic acid]
CN1[C@@H](CC2CC2)CN(c2ccccc2)c2cc(Cl)c(-c3cccc(C(=O)O)c3)cc2S1(=O)=O [Example 41]
CCCC[C@H]1CN(c2ccccc2)c2cc(N3CCCC3)c(-c3cccc(C(=O)O)c3)cc2S(=O)(=O)N1C [Example 538]
CC(C)C[C@@H]1CN(c2ccccc2)c2cc(Cl)c(-c3ccc4[nH]ncc4c3)cc2S(=O)(=O)N1C [Example 181]
CN1[C@H](CCc2ccccc2)CN(c2ccccc2)c2cc(Cl)c(-c3ccc(F)c(C(=O)O)c3)cc2S1(=O)=O [Example 53]
CN1[C@@H](Cc2ccc(Cl)cc2)CN(c2ccccc2)c2cc(C#N)c(-c3cccc(C(=O)O)c3)cc2S1(=O)=O [Example 13]
CC(C)C[C@@H]1CN(c2ccccc2)c2cc(Cl)c(-c3cccc(CCC(=O)O)c3)cc2S(=O)(=O)N1C [Example 172]
CN1[C@H](C2COC2)CN(c2ccccc2)c2cc(Cl)c(-c3ccc(F)c(C(=O)O)c3)cc2S1(=O)=O [Example 106]
CN1[C@H](C2CCCCC2)CN(c2ccccc2)c2cc(Cl)c(-c3cncc(C(=O)O)c3)cc2S1(=O)=O [Example 136, (R)-5-(7-chloro-3-cyclohexyl-2-methyl-1,1-dioxido-5-phenyl-2,3,4,5-tetrahydrobenzo[f][1,2,5]thiadiazepin-8-yl)nicotinic acid]
CN1[C@H](CC2CC2)CN(c2ccccc2)c2cc(Cl)c(-c3cncc(C(=O)O)c3)cc2S1(=O)=O [Example 74]

pEC50, 6.00 to 7.00:
CN1[C@H](C2CCCCC2)CN(c2ccccc2)c2cc(Cl)c(-c3cc(C(=O)O)c4cc[nH]c4c3)cc2S1(=O)=O [Example 209]
CO[C@H]1C[C@H](N2C[C@@H](CC(C)C)N(C)S(=O)(=O)c3cc(-c4ccc(F)c(C(=O)O)c4)c(Oc4ccccc4F)cc32)C1 [Example 472]
CN1[C@H](C2CC(F)(F)C2)CN(c2ccccc2)c2cc(Cl)c(-c3cc(F)c(F)c(C(=O)O)c3)cc2S1(=O)=O [Example 31]
CC(C)C[C@@H]1CN(c2ccccc2)c2cc(OC(C)(C)C(F)(F)F)c(-c3ccc(Cl)c(C(=O)O)c3)cc2S(=O)(=O)N1C [Example 452]
CN1[C@H](C2CCCCC2)CN(c2ccccc2)c2cc(Cl)c(-c3ccc(F)c(S(N)(=O)=O)c3)cc2S1(=O)=O [Example 199]
CN1[C@H](C2CCCCC2)CN(c2ccccc2)c2cc(Oc3ccccn3)c(-c3ccc(F)c(C(=O)O)c3)cc2S1(=O)=O [Example 414]
CN1[C@H](C2CCCCC2)CNc2cc(-c3ccoc3)c(-c3ccc(F)c(C(=O)O)c3)cc2S1(=O)=O [Example 571]
CC(C)C[C@@H]1CN([C@@H]2CCOC2)c2cc(Oc3ccccc3F)c(-c3ccc(F)c(C(=O)O)c3)cc2S(=O)(=O)N1C [Example 470]
CCC[C@@H]1CN(c2ccccc2)c2cc(Cl)c(-c3ccc(F)c(C(=O)O)c3)cc2S(=O)(=O)N1C [Example 47]
CN1[C@H](C2CCCCC2)CN(c2ccccc2)c2cc(Cl)c(-c3cc(C(=O)O)ncn3)cc2S1(=O)=O [Example 140, (R)-6-(7-chloro-3-cyclohexyl-2-methyl-1,1-dioxido-5-phenyl-2,3,4,5-tetrahydrobenzo[f][1,2,5]thiadiazepin-8-yl)pyrimidine-4-carboxylic acid]
CC(C)C[C@@H]1CN(c2ccccc2)c2cc(Cl)c(-c3ccc(-c4ccoc4)c(C(=O)O)c3)cc2S(=O)(=O)N1C [Example 216]
CC(C)[C@@H]1CN(c2ccccc2)c2cc(Cl)c(-c3ccc(F)c(C(=O)O)c3)cc2S(=O)(=O)N1C [Example 61, (R)-5-(7-chloro-3-isopropyl-2-methyl-1,1-dioxido-5-phenyl-2,3,4,5-tetrahydrobenzo[f][1,2,5]thiadiazepin-8-yl)-2-fluorobenzoic acid]
CN1C(CC2CCCC2)CN(c2ccccc2)c2cc(Cl)c(-c3ccc(Cl)c(C(=O)O)c3)cc2S1(=O)=O (stereo not drawn) [Example 78]
CN1[C@H](C2CCCCC2)CN(c2ccccc2)c2cc(OC3CC4(CCOCC4)C3)c(-c3ccc(F)c(C(=O)O)c3)cc2S1(=O)=O [Example 383]
CC(C)C[C@@H]1CN(C23CC(C2)C3)c2cc(Oc3ccccc3F)c(-c3ccc(F)c(C(=O)O)c3)cc2S(=O)(=O)N1C [Example 469]
CC(C)C[C@@H]1CN(c2ccccc2)c2cc(-c3ccc4ncoc4c3)c(-c3ccc(F)c(C(=O)O)c3)cc2S(=O)(=O)N1C [Example 579]
CCOc1ccc(N2C[C@@H](C3CCCCC3)N(C)S(=O)(=O)c3cc(-c4ccc(F)c(C(=O)O)c4)c(Cl)cc32)cc1 [Example 309]
CCO[C@H](C)[C@@H]1CN(c2ccccc2)c2cc(Cl)c(-c3ccc(F)c(C(=O)O)c3)cc2S(=O)(=O)N1C [Example 92]
CN1C[C@@H](C2CCCCC2)N(C)S(=O)(=O)c2cc(-c3ccc(F)c(C(=O)O)c3)c(-c3ccccc3F)cc21 [Example 581]
CN1[C@H](C2CCCCC2)CN(c2ccccc2)c2cc(Cl)c(-c3cc(C(=O)O)ccc3Cl)cc2S1(=O)=O [Example 151, (R)-4-chloro-3-(7-chloro-3-cyclohexyl-2-methyl-1,1-dioxido-5-phenyl-2,3,4,5-tetrahydrobenzo[f][1,2,5]thiadiazepin-8-yl)benzoic acid]
COc1cccc(N2C[C@@H](C3CCCCC3)N(C)S(=O)(=O)c3cc(-c4ccc(F)c(C(=O)O)c4)c(Cl)cc32)c1 [Example 305]
CN1[C@H](C2CCCC2)CN(c2ccccc2)c2cc(Cl)c(-c3ccc(F)c(C(=O)O)c3)cc2S1(=O)=O [Example 66]
CN1[C@H](C2CCCCC2)CN(c2cncc(F)c2)c2cc(Cl)c(-c3ccc(F)c(C(=O)O)c3)cc2S1(=O)=O [Example 280, (R)-5-(7-chloro-3-cyclohexyl-5-(5-fluoropyridin-3-yl)-2-methyl-1,1-dioxido-2,3,4,5-tetrahydrobenzo[f][1,2,5]thiadiazepin-8-yl)-2-fluorobenzoic acid]
COc1cc(-c2cc3c(cc2Cl)N(c2ccccc2)C[C@@H](CC(C)C)N(C)S3(=O)=O)cc(C(=O)O)c1F [Example 179, (R)-5-(7-chloro-3-isobutyl-2-methyl-1,1-dioxido-5-phenyl-2,3,4,5-tetrahydrobenzo[f][1,2,5]thiadiazepin-8-yl)-2-fluoro-3-methoxybenzoic acid]
CC(C)C[C@@H]1CN(C2CC2)c2cc(Oc3ccccc3F)c(-c3ccc(F)c(C(=O)O)c3)cc2S(=O)(=O)N1C [Example 471]
